Laboratory results reported in patent publication US20230234936A1, “COMPOUND FOR TARGETING AND DEGRADING PROTEIN, AND PREPARATION METHOD THEREFOR AND USE THEREOF” (SHANGHAI LEADINGTAC PHARMACEUTICAL CO., LTD., priority 2020, published 2023).

Experiments:
IRAK4 kinase = biological target: T1, IRAK4 kinase (Homo sapiens, UniProt Q9NWZ3); test: IRAK4 kinase activity test (KinEASE-STK S1 HTRF kit); format: biochemical; conditions: 2.5 nM kinase, 1 μM biotinylated polypeptide substrate, 7 μM ATP, 37° C. 120 min
T1 sequence (Q9NWZ3 1-460): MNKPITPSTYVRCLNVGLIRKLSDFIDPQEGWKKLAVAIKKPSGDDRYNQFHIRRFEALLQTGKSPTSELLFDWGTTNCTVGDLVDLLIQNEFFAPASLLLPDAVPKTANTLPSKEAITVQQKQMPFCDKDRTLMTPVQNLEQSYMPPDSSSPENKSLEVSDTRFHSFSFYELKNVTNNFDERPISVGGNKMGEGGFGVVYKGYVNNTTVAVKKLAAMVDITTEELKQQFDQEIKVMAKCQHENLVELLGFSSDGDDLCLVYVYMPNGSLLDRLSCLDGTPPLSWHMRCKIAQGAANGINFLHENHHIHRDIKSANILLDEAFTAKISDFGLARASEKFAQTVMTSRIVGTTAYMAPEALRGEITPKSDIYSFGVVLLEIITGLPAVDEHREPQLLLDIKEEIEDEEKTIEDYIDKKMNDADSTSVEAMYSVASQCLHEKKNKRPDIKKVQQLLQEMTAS
Summary of the method: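 Compound in DMSO, serially diluted to 10000–0.038 nM final, incubated with 2.5 nM kinase, 1 μM biotinylated peptide substrate and 7 μM ATP at 37° C for 120 min. Eu-anti-phospho-Ser/Thr antibody plus streptavidin-XL665 stopped the reaction (1 h RT). HTRF 665/620 nm ratio gave % inhibition versus control; IC50 from nonlinear log-concentration fit.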

[1] = biological target: T2, IRAK4 protein in THP-1 cells (Homo sapiens, UniProt Q9NWZ3); test: Degradation of IRAK4 in THP-1 cells (Western blot); format: cell-based; conditions: 24 hours, compound 1-3000 nM
T2 construct: endogenous in cells; host or cells: THP-1
T2 sequence (Q9NWZ3 1-460): T1 sequence (Q9NWZ3 1-460)
Summary of the method: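 THP-1 cells (5×10^5/well) treated 24 h with compound at 1–3000 nM final. IRAK4 in lysates quantified by Western blot, normalized to internal reference and compared with control to give degradation rate; DC50 and Dmax from nonlinear fit of log concentration.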

IKZF1 in L363 cells = biological target: T3, IKZF1 in L363 cells (Homo sapiens, UniProt Q13422+Q96SW2); test: Degradation of IKZF1 in L363 cells (Western blot); format: cell-based; conditions: 1000 nM, 16 hours
T3 construct: endogenous in cells; host or cells: L363
Experimental: (§1) The 24-well cell culture plate was inoculated with 0.95 mL L363 cells (Nanjing Co-bioer) per well with a cell density of 6×10^5 cells/well. The cell plate was placed in a 5% carbon dioxide incubator and cultured at 37° C. for 8 hours, then 50 μL of compound solution was added. The final concentration of the compound was 1000 nM. After continuing to culture for 16 hours, the cells were collected into a 1.5 mL centrifuge tube and centrifuged at 3000 rpm and 4° C. for 5 minutes. Cell precipitation was cleaned twice with 1×DPBS, resuspended cells were lysed with 100 μL lysate (cell lysate was Western and IP cell lysate (Beyotime), supplemented with 1 mM mixture of phenylmethylsulfonyl fluoride and protease inhibitor (Beyotime)), left on ice for 30 minutes, then centrifuged at 14000 g at 4° C. for 10 minutes, and the supernatant was taken to detect IKZF1 and IKZF3 protein level by Western blot.
(§2) The total protein concentration in the supernatant of cell lysis was determined by BCA protein quantitative kit (Tiangen). According to the concentration of total protein detected by BCA, the supernatant was adjusted to 0.2 μg/μL with PBS and 5× SDS-PAGE protein loading buffer (Beyotime), bathed in water at 100° C. for 10 minutes, then placed in ice bath for 5 minutes, centrifuged at 14000 g and 4° C. for 5 minutes, and then collected as WB loading sample. Prefabricated glue (KeyGEN) was used for protein electrophoresis with a loading amount of 10 μL (total protein 2 μg). After Tris-MOPS-SDS electrophoresis solution (Adamas), 120V constant pressure electrophoresis was performed. After electrophoresis, the protein on the adhesive strip was transferred to PVDF membrane with a constant current of […] for 50 minutes. After the membrane was transferred, the membrane was incubated in 5% bovine serum albumin solution for 2 hours at room temperature. After blocking, PVDF membranes were incubated with IKZF1 primary antibody (CST) and IKZF3 primary antibody (Abcam) overnight at 4°, the membranes were washed with TBST buffer (2.4 g Tris, 8.8 g NaCl, 1.5 mL Tween 20, pH adjusted to 7.4, constant volume to IL) for 30 minutes, incubated with secondary antibody (Abcam) for 2 hours at room temperature, finally incubated with Clarity Western ECL Substrate(BIO-RAD) for 5 minutes for luminescence development, chemiluminescence imaging system (Clinx, chemiScope 6200 Touch) for development and protein mapping photography. The protein map was analyzed by Clinx chemiluminescence analysis software for grayscale values. Using the formula: grayscale correction value=(target protein grayscale value/corresponding internal reference grayscale value)×10^3, the grayscale correction value of each sample was calculated. The degradation rate was calculated by comparing with the grayscale correction value of the control group.

IKZF3 in L363 cells = biological target: T4, IKZF3 in L363 cells (Homo sapiens, UniProt Q96SW2+Q9UKT9); test: Degradation of IKZF3 in L363 cells (Western blot); format: cell-based; conditions: 1000 nM, 16 hours
T4 construct: endogenous in cells; host or cells: L363
Experimental: as §1, §2

[2] = system: Interleukin-6 (IL-6) in LPS-induced human PBMC; test: Cytokine secretion of LPS-induced human PBMC, IL-6 AlphaLISA detection; format: cell-based; conditions: inhibition of IL-6, compound 1 hour or 20 hours, then LPS 100 ng/mL 5 hours
Experimental: Frozen human PBMC (Milestone, PB010C) was resuspended to RPMI 1640 medium (Gibco, A1049101) after resuscitation, supplemented with 10% fetal bovine serum (Gibco, 10099141), 100 U/mL penicillin and 100 μg/mL streptomycin (Gibco, 15140122). On the same day, 150 μL of PBMC was spread in each well of a 96-well transparent cell plate (Labserv, 310109008), so that the cell density was 2×10^5 cells/well. Then 50 μL diluted compound solution was added to the corresponding cell-covered wells to make the final concentration of the compound in the range of 0.026-10000 nM. The final concentration of DMSO was 0.25%. After the drug-treated cell plate was cultured at 37° C. for 1 hour or 20 hours in a 5% CO2 incubator, 10 μL LPS (0111:B4) (Sigma, L4391) was added with a final concentration of 100 ng/mL. The cell plate was again placed in a 5% CO2 incubator at 37° C. for 5 hours, centrifuged at 2000 rpm for 10 minutes, and 100 μL cell supernatant was taken from each well and transferred to a new 96-well transparent cell plate for cytokine concentration test, which was frozen at −80° C. to be tested.
The concentration of IL-6 in the supernatant of LPS-induced human PBMC cells was determined using interleukin-6 (IL-6) AlphaLISA detection kit (PerkinElmer, AL223 C).
According to the product instructions, IL-6 standard solutions with different concentrations were prepared in the concentration range of […]. 2 μL of IL-6 standard solution at various concentrations and the cell supernatant sample to be tested were taken, respectively added to white 384 well plates (PerkinElmer, 6007299), then a mixed solution of 8 μL of 5× anti-IL-6 receptor beads (final concentration: 10 μg/mL) and biotin-labeled anti-IL-6 antibody (final concentration 1 nM) was added to each well, and incubated at 23° C. for 60 minutes. Finally, 10 μL of 2× streptavidin-labeled donor beads (final concentration: 40 μg/mL) were added to each well and incubated at 23° C. for 30 minutes in the absent of light. After the incubation, the AlphaLISA signal value was determined in the AlphaScreen standard setting mode on the microplate reader EnVision(PerkinElmer, 2105). The standard curve was drawn by the AlphaLISA signal value of each concentration IL-6 standard solution, and then based on the corresponding concentration on the standard curve for the AlphaLISA signal value of the sample to be tested, the IL-6 concentration of each cell lysis supernatant was determined. Compared with the IL-6 concentration of the control group, the inhibition rate of the compound at each concentration was calculated, and then IC50 value of the compound was calculated by fitting the nonlinear curve with the logarithmic concentration-inhibition rate by GraphPad Prism 7.

T4 sequence (Q9UKT9 whole entry): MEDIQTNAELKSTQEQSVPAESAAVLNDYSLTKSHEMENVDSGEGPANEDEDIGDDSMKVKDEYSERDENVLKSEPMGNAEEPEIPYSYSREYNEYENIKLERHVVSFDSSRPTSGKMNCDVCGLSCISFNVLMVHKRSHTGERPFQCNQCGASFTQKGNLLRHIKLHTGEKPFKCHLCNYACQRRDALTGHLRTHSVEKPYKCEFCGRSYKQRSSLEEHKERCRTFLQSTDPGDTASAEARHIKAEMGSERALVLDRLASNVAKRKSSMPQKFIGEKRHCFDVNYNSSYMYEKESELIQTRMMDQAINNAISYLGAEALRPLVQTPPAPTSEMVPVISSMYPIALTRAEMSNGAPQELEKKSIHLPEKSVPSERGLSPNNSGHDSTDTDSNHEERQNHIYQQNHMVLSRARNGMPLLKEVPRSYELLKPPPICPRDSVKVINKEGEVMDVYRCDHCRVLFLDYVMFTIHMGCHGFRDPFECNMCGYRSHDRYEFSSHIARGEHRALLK
T4 sequence (Q96SW2 whole entry): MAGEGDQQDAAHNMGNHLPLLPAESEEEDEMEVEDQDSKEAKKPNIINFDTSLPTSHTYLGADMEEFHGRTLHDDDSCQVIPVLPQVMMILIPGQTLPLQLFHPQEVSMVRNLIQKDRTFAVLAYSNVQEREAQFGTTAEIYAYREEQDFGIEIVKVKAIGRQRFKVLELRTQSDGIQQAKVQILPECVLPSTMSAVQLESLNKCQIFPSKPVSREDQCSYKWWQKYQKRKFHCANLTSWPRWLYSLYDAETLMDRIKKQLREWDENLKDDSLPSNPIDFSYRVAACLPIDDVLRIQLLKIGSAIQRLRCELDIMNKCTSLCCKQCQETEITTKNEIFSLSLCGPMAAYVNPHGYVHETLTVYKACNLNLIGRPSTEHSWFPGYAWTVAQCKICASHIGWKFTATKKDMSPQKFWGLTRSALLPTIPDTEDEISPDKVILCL
T4 sequence (Q16531 whole entry partner): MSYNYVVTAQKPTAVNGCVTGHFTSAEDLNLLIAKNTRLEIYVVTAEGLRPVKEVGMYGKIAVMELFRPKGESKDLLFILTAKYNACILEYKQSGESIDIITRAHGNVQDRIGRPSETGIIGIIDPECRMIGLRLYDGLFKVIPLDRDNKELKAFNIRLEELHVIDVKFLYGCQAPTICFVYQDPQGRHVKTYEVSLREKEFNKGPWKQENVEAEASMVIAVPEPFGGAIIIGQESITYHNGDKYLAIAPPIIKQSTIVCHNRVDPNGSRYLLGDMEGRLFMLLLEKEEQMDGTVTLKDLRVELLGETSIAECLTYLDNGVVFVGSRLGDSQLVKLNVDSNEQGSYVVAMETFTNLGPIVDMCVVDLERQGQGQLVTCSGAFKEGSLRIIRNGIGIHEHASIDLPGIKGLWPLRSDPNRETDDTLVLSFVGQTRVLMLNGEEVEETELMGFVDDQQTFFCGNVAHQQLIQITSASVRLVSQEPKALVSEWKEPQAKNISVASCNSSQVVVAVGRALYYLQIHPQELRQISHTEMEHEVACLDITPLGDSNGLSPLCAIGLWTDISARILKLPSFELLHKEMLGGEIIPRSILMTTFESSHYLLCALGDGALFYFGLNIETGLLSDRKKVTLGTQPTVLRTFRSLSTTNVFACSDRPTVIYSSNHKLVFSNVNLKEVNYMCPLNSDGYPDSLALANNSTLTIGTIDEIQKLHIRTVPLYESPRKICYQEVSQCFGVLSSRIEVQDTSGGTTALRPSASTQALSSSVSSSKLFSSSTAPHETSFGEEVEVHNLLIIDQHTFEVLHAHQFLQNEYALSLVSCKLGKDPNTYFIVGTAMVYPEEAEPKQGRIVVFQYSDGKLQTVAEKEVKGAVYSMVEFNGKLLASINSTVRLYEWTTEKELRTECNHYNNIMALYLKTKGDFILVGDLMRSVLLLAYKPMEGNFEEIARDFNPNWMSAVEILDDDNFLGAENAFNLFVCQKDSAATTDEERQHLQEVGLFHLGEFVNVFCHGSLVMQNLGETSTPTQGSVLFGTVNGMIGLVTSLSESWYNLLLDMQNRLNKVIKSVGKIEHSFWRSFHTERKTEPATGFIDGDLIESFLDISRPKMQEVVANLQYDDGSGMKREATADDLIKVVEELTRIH
T3 sequence (Q13422 whole entry): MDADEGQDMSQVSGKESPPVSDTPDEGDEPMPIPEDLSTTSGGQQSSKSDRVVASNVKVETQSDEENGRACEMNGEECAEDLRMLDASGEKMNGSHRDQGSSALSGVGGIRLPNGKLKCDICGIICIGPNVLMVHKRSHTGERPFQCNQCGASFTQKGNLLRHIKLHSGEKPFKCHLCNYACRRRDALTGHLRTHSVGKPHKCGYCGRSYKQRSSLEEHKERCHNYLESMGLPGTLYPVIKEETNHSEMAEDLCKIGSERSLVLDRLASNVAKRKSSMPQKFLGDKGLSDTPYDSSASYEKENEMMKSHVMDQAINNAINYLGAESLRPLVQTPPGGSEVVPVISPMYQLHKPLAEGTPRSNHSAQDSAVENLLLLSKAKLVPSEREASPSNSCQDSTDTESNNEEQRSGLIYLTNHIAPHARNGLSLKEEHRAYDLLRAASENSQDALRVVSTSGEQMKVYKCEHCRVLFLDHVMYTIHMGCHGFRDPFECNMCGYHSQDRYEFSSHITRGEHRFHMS
T3 sequence (Q96SW2 whole entry): as the sequence (Q96SW2 whole entry) above
T3 sequence (Q16531 whole entry partner): as the sequence (Q16531 whole entry partner) above

Structure (SMILES) | IC50 (IRAK4 kinase) | DC50 [1] | Dmax [1] | IKZF1 degradation rate (IKZF1 in L363 cells) | IKZF3 degradation rate (IKZF3 in L363 cells) | IC50 [2]
CC(C)(O)c1cc2nn(C3CCN(CCC4CCC5(CC4)CCN(C(=O)c4ccc(F)c(N6CCC(=O)NC6=O)c4)CC5)CC3)cc2cc1NC(=O)c1cccc(C(F)(F)F)n1 [Example 34, N-(2-(1-(2-(3-(3-(2,4-dioxotetrahydro-pyrimidin-1 (2H)-yl)-4-fluoro-benzoyl)-3-azaspiro[5.5]undec-9-yl)ethyl)piperidin-4-yl)-6-(2-hydroxyprop-2-yl)-2H-indazol-5-yl)-6-(trifluoro-methyl) pyridinecarbox-amide] | 16.5 nM | 2.5 nM | 98.1% | 10.2 ± 1.8% | −2.2 ± 2.8% | 
COc1cc2nn([C@H]3CC[C@H](CN(C)CCC4CCN(C(=O)c5ccc(Cl)c(N6CCC(=O)NC6=O)c5)CC4)CC3)cc2cc1NC(=O)c1cccc(C(F)(F)F)n1 [Example 49, N-(2-((1r,4r)-4-(((2-(1-(4-chloro-3-(2,4-dioxotetrahydro-pyrimidin-1 (2H)-yl)benzoyl)piperidin-4-yl)ethyl) (methyl)amino)methyl)cyclohexyl)-6-methoxy-2H-inda-zol-5-yl)-6-(tri-fluoromethyl) pyridinecarbox-amide] | 3.4 nM | 1.8 nM | 99.2% |  |  | 3.7 nM
CC(C)(O)c1cc2nn(C3CCN(CCC4CCC5(CC4)CCN(C(=O)c4ccc(Cl)c(N6CCC(=O)NC6=O)c4)CC5)CC3)cc2cc1NC(=O)c1cccc(C(F)(F)F)n1 [Example 28, N-(2-(1-(2-(3-(4-chloro-3-(2,4-dioxotetrahydro-pyrimidin-1 (2H)-yl)benzoyl)-3-azaspiro [5.5]undec-9-yl)ethyl)piperidin-4-yl)-6-(2-hydroxyprop-2-yl)-2H-indazol-5-yl)-6-(trifluoro-methyl) pyridinecarbox-amide] | 16.2 nM | 0.8 nM | 99.4% |  |  | 4.7 nM
Nc1cccc2c1C(=O)N(C1CCC(=O)NC1=O)C2=O (centres unmarked) [Pomalidomide] |  |  |  | 99.7 ± 0.2% | 98.6 ± 0.6% | 
COc1cc2nn(C3CCN(CC4CCC5(CC4)CCN(C(=O)c4ccc(Cl)c(N6CCC(=O)NC6=O)c4)CC5)CC3)cc2cc1NC(=O)c1cccc(C(F)(F)F)n1 [Example 32] | 28.5 nM | 5.1 nM | 96.9% |  |  | 9.7 nM
COc1cc2nn(C3CCN(CCN4CCC5(CC4)CCN(C(=O)c4ccc(OC)c(N6CCC(=O)NC6=O)c4)CC5)CC3)cc2cc1NC(=O)c1cccc(C(F)(F)F)n1 [Example 1, N-(2-(1-(2-(9-(3-(2,4-dioxotetrahydropyrimidin-1 (2H)-yl)-4-methoxybenzoyl)-3,9-diazaspiro[5.5]undec-3-yl)ethyl)piperidin-4-yl)-6-methoxy-2H-indazol-5-yl)-6-(trifluoromethyl)-2-pyridinecarboxamide] | 2.5 nM | 3 nM | 94.6% |  |  | 4.9 nM
COc1cc2nn([C@H]3CC[C@H](N(C)C4CCC5(CC4)CCN(C(=O)c4ccc(Cl)c(N6CCC(=O)NC6=O)c4)CC5)CC3)cc2cc1NC(=O)c1cccc(C(F)(F)F)n1 [Example 56] | 3.6 nM | 3 nM | 97% |  |  | 3.2 nM
CC(C)(O)c1cc2nn(C3CCN(CC4CCC5(CC4)CCN(C(=O)c4ccc(F)c(C6CCC(=O)NC6=O)c4)CC5)CC3)cc2cc1NC(=O)c1cccc(C(F)(F)F)n1 (centres unmarked) [Example 41, N-(2-(1-((3-(3-(2,6-dioxopiperidin-3-yl)-4-fluoro-benzoyl)-3-azaspiro [5.5]undec-9-yl)methyl)piperidin-4-yl)-6-(2-hydroxyprop-2-yl)-2H-inda-zol-5-yl)-6-(triflu-oromethyl) pyridinecarbox-amide] | 28.1 nM | 2.9 nM | 97.7% |  |  | 5.1 nM
CN(CCC1CCN(C(=O)c2ccc(Cl)c(N3CCC(=O)NC3=O)c2)CC1)C[C@H]1CC[C@H](n2cc3cc(NC(=O)c4cccc(C(F)(F)F)n4)c(C(C)(C)O)cc3n2)CC1 [Example 55, N-(2-((1r,4r)-4-(((2-(1-(4-chloro-3-(2,4-dioxotetrahydro-pyrimidin-1 (2H)-yl)benzoyl)piperidin-4-yl)ethyl) (methyl)amino)methyl)cyclohexyl)-6-(2-hydroxyprop-2-yl)-2H-indazol-5-yl)-6-(trifluoro-methyl) pyridinecarbox-amide] | 10.6 nM | 2.7 nM | 98.1% |  |  | 0.8 nM
